In patent US9932335B2 (priority 2013, dated 2018) one finds EC50 data, which are given here for 11 compounds.

Residue numbers refer to the chain shown, from its start. Where two headings read alike, the source gives them in different places.

One experiment concerns the target T1, M1 receptor (Rattus norvegicus, UniProt P08482).
T1 construct: expressed in transfected cells
T1 sequence (P08482 1-460): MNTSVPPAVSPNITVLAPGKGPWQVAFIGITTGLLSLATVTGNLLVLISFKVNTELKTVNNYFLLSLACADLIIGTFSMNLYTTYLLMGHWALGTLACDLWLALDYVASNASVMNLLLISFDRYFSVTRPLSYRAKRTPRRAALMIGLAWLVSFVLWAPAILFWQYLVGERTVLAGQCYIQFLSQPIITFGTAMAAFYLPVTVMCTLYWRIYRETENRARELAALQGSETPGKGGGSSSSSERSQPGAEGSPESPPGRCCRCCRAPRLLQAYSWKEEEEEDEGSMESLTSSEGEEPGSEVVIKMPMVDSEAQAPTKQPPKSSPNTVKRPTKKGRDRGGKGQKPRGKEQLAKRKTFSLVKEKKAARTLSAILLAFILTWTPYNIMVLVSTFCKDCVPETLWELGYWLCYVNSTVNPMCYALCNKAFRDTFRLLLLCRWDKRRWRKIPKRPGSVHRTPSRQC
The experiment is described as follows: M1 PAM assay (FLIPR intracellular calcium), rat. It counts as cell-based.

The target of another experiment is T2, human M1 (Homo sapiens, UniProt P11229).
T2 construct: expressed in transfected cells; host or cells: CHO cells
T2 sequence (P11229 1-460): T1 sequence (P08482 1-460) with V5A, S254T, S309P, K320R, G337A, V413I
The experiment in a line: M1 PAM assay (FLIPR intracellular calcium, CHO human M1). Type of experiment: cell-based. How it is done: The assay study the effect of several concentrations of test compounds on basal or acetylcholine-stimulated Ca^2+ levels using FLIPR. CHO human M1 are plated the day before the experiments at 2×10^5 cells/ml in PDL BioCoat 96 well black/clear plate (Becton 35 4640). The cells are grown at 37° C. and 5% CO2 in the following medium: F12 Nut Mix (Gibco 21765), 10% FCS heat inactivated (GIBCO 16000-044), 1% Pen Strep (Gibco, 15140) and 200 μg/ml Geneticin (Gibco 11811). On the day of the experiment, the medium was removed and replaced by 100 μl of dye loading buffer containing Hanks Balanced Salt solution (HBSS, 14065-049, Gibco) with 20 mM HEPES (Gibco 15630-056), 2 mM Probenicid (Sigma P8761), […] (Molecular Probes F-14202), 10% Pluronic acid Molecular Probes P-3000) pH=7.4 and incubated at 37° C. After 60 minutes extracellular dye was removed and the cells were washed five times with FLIPR buffer containing HBSS (Gibco 14065-049) with 20 mM HEPES (Gibco, 15630-056), 2 mM Probenicid (Sigma P8761) pre-warmed at 37° C. using and Ebml cell washer leaving 100 μl of FLIPR buffer in each well. The cell plate and the diluted compounds (1% DMSO final concentration) are placed on the platform of the FLIPR and the door closed. A signal test to check background fluorescence and basal fluorescence signal is performed. Laser intensity is adjusted if necessary. Two minutes preincubation with the diluted test compounds is provide to determine any agonist activity on the M1 receptor by comparison to 30 nM Acetylcholine control. In order to determine any modulator activity the diluted compounds were added to cells and after two minutes preincubation, the EC20 of acetylcholine is added followed by another two minutes preincubation before the measurement of intracellular Ca^2+ with a FLIPR (Molecular Devices).

Setting [1] is: rat, modulator activity with EC20 of acetylcholine, FLIPR Ca2+, read-out: EC50 rat PAM.
The mark [2] stands for this setting: human M1 in CHO cells, modulator activity with EC20 of acetylcholine, FLIPR Ca2+, read-out: EC50 h PAM.

Consider `Cn1cc(-c2ccc(Cn3cc(C(=O)N[C@H](CO)C(C)(C)C)c4ncccc43)c(F)c2)cn1` [Example 27, 1-[2-Fluoro-4-(1-methyl-1H-pyrazol-4-yl)-benzyl]-1H-pyrrolo[3,2-b]pyridine-3-carboxylic acid ((S)-1-hydroxymethyl-2,2-dimethyl-propyl)-amide], for which the EC50 at M1 receptor (setting [1]) was 355 nM; at human M1 (setting [2]), 126 nM.
In the case of `Cn1cc(-c2ccc(Cn3nc(C(=O)N[C@H]4CCCC[C@@H]4O)c4ncccc43)c(F)c2)cn1` [Example 6, 1-(2-fluoro-4-(1-methyl-1H-pyrazol-4-yl)benzyl)-N-((1S,2S)-2-hydroxycyclohexyl)-1H-pyrazolo[4,3-b]pyridine-3-carboxamide], the figures for the EC50 at M1 receptor (setting [1]) and at human M1 (setting [2]) were 71.5 nM and 25.3 nM, respectively.
`NC(=O)c1ccc(Cn2cc(C(=O)N[C@@H]3CCOC[C@H]3O)c3ncccc32)cc1` (stereo in doubt) [Example 63a, 1-(4-Carbamoylbenzyl)-N-((3S,4R)-3-hydroxytetrahydro-2H-pyran-4-yl)-1H-pyrrolo[3,2-b]pyridine-3-carboxamide]: the EC50 on M1 receptor stood at 661 nM; on human M1, 289 nM.
`Cn1cc(-c2ccc(Cn3cc(C(=O)N[C@H]4CCCC[C@@H]4O)c4ncccc43)cn2)cn1` [Example 56, N-((1S,2S)-2-hydroxycyclohexyl)-1-((6-(1-methyl-1H-pyrazol-4-yl)pyridin-3-yl)methyl)-1H-pyrrolo[3,2-b]pyridine-3-carboxamide]: the EC50 on M1 receptor turned out to be 71 nM; on human M1 it was 34.9 nM.
Regarding `C[C@@H](CO)NC(=O)c1cn(Cc2ccc(-c3cnn(C)c3)cc2F)c2cccnc12` [Example 8, 1-[2-Fluoro-4-(1-methyl-1H-pyrazol-4-yl)-benzyl]-1H-pyrrolo[3,2-b]pyridine-3-carboxylic acid ((S)-2-hydroxy-1-methyl-ethyl)-amide], the results for the EC50 on M1 receptor and on human M1 were 695 nM and 248 nM, respectively.
In the case of `COc1ccc(Cn2cc(C(=O)N[C@H]3CCCC[C@@H]3O)c3ncccc32)cc1F` [Example 44, 1-(3-fluoro-4-methoxybenzyl)-N-((1S,2S)-2-hydroxycyclohexyl)-1H-pyrrolo[3,2-b]pyridine-3-carboxamide], the EC50 on M1 receptor stood at 598 nM; on human M1, 127 nM.
As to `Cn1cc(-c2ccc(Cn3cc(C(=O)Nc4ncccc4O)c4ncccc43)c(F)c2)cn1` [Example 36, 1-[2-Fluoro-4-(1-methyl-1H-pyrazol-4-yl)-benzyl]-1H-pyrrolo[3,2-b]pyridine-3-carboxylic acid (3-hydroxy-pyridin-2-yl)-amide], the EC50 on M1 receptor (setting [1]) was 314 nM; at human M1 (setting [2]), 109 nM.
With `Cn1cc(-c2ccc(Cn3cc(C(=O)N[C@H]4CCOC[C@@H]4O)c4ncccc43)cn2)cn1` (racemic) [Example 57, N-((3RS,4SR)-3-hydroxytetrahydro-2H-pyran-4-yl)-1-((6-(1-methyl-1H-pyrazol-4-yl)pyridin-3-yl)methyl)-1H-pyrrolo[3,2-b]pyridine-3-carboxamide], the results for the EC50 on M1 receptor and at human M1 were 133 nM and 143 nM, respectively.
In the same order, the values of `Cn1cc(-c2ccc(Cn3cc(C(=O)NCc4cccnc4)c4ncccc43)c(F)c2)cn1` [Example 64] are 1060 nM and 261 nM.
In the case of `Cn1cc(-c2ccc(Cn3cc(C(=O)NCC(C)(C)O)c4ncccc43)c(F)c2)cn1` [Example 11, 1-[2-Fluoro-4-(1-methyl-1H-pyrazol-4-yl)-benzyl]-1H-pyrrolo[3,2-b]pyridine-3-carboxylic acid (2-hydroxy-2-methyl-propyl)-amide], the EC50 turned out to be 616 nM at M1 receptor and 317 nM at human M1.
As for `Cn1ncc2cc(Cn3cc(C(=O)N[C@H]4CCCC[C@@H]4O)c4ncccc43)ccc21` [Example 52, N-((1S,2S)-2-hydroxycyclohexyl)-1-((1-methyl-1H-indazol-5-yl)methyl)-1H-pyrrolo[3,2-b]pyridine-3-carboxamide], the 50% effective concentration (EC50) on M1 receptor was determined as 163 nM; at human M1, 71.5 nM.
